From patent US20050037033A1, “Microbicidal compositions and methods and use” (priority 2003, published 2005)
Like-named read-outs stand apart in the source and are kept apart here.

How the values were obtained:
[1] = test system: C. trachomatis Serovar E elementary bodies; assay: Chlamydia trachomatis inhibition assay; assay type: cell-based
Protocol: C. trachomatis Serovar E elementary bodies ([…]; 10^4 IFU) were incubated for 4 hours on ice with compound, the mixture was inoculated into HeLa cell monolayers, and incubated for 1 hour. The inoculum was removed, the medium changed and the cells incubated overnight (20-22 hours). The cells were removed, fixed, permeabilized, and the infected cells detected by fluorescently tagged antibody and flow cytometry.

HIV-IRF = assay: PV-L assay (virus mixed with compound, then cells, no washing); assay type: cell-based; settings: Human immunodeficiency virus 1, PM1, Series 1, PV-L: HIV-IRF mixed with compound 1 hour, then PM-1 cells, 8 days, reverse transcriptase activity, read-out: 50% Effective Concentrations (IC50)
Protocol: PV-L assay: Immobilized virus (HIV-IRF; 10^3 TCID50) was mixed with compound for 1 hour at 37° C. before addition of indicator T cells (PM-1; 10^5/well) and incubated for 8 days (no washing).
In each of the assays above, viral replication was monitored after 8 days by measuring reverse transcriptase activity.

Work on Cc1cc(C2CCCCC2)n(O)c(=O)c1.NCCO [CO, 6-Cyclohexyl-1-hydroxy-4-methyl-2-(1H)-pyridone ethanolamine salt] yielded an IC50 [1] of 1600 µg/mL, an IC50 ([1]; HeLa cell monolayers, flow cytometry) of 1630 µg/mL and an IC50 (HIV-IRF) of 1.46 µg/mL.
